The source of these data is patent publication US7910621B2, “Small molecule antagonists of XIAP family proteins” (The Regents of the University of Michigan, priority 2004, dated 2011).

The target of assay [1] is T1, human XIAP-BIR3 domain (residues 241-356) (Homo sapiens, UniProt P98170).
T1 construct: The human XIAP-BIR3 domain (residues 241-356) fused to His-tag; His-tag (pET-28b); made in house; host or cells: Escherichia coli BL21(DE3)
Briefly: 15N-HSQC NMR binding confirmation. The note with it: 100 μM protein, 100 μM embelin, 30° C. The protocol:
To conclusively confirm that embelin binds to the XIAP BIR3 domain where Smac and caspase-9 bind, and to rule out any potential false positive, an analysis using nuclear magnetic resonance (NMR) Heteronuclear Single Quantum Coherence Spectroscopy (HSQC) method was performed. The human XIAP-BIR3 domain (residues 241-356) fused to His-tag was expressed in M9 medium containing ^15N ammonium chloride to uniformly label protein with ^15N and was purified. ^15N HSQC NMR spectra were recorded with embelin and without embelin at 30° C. […]
The NMR experiments were performed on a Varian Inova 500 with pulse field gradient (PFG) HSQC, with the water flip back to maximize the signal intensity and to minimize the destruction from the water signal (see, e.g., Grzesiek, S., et al., J. Am. Chem. Soc. 115, 12593-94 (1993); Sheppard, G. S., et al., Abstr. Pap.-Am. Chem. Soc. 213, 81 (1997)) (300 μM XIAP, 50 mM phosphate buffer pH 7.3, 2 mM DTT at 25° C.). ^15N HSQC NMR spectra were recorded with samples containing 100 μM of the ^15N protein in 50 mM Tris (pH 7.2), 50 μM Zn(Cl)2, 1 mM DTT at 30° C. with 100 μM embelin and without it. […]

The subject of assay [2] is normal human fibroblast cell line WI-38. Put plainly: WST-1 cell growth inhibition assay, WI-38. The format is cell-based. The note with it: 120 h, WI-38, WST-1, five days. The procedure: FIG. 5 presents inhibition of cell growth by embelin in prostate cancer cells (PC-3 and LnCap) and its selectivity in normal human prostate epithelial cells (PrEC) and normal human fibroblast cell line, WI-38. 5000 cells per well in a 96-well cell culture plate were treated with various concentrations of embelin in triplicate. Five days later, the cell growth was measured by the WST-1 cell growth assay kit […] The cell growth results are expressed as the percent of control and calculated from the percent of absorbance of treated wells versus that of vehicle control.
Human prostate cancer cell lines (PC-3, LNCap, CL-1, DU-145), and normal human fibroblast cell line WI-38 were obtained from the American Type Culture Collection (ATCC), were grown and maintained in Dulbecco's modified Eagle's medium (DMEM) containing 10% FBS (Invitrogen Corporation). Normal human prostate epithelial cells (PrEC) were obtained from Clonetics (Cambrex Inc., MD) and maintained in the special medium provided by the company. […]
(§1) Cell growth was determined by the MTT-based assay using Cell Proliferation Reagent WST-1 (Roche) according to the manufacturer's instruction. […] Absorbance was measured with a plate reader at […] with correction at […]. The results are expressed as the percent of absorbance of treated wells versus that of vehicle control.
For orientation: Tetrazolium dyes change colour on reduction, which living cells bring about.

The subject of assay [3] is Jurkat-Vec cells. Put plainly: Cell growth assay, Jurkat-Vec. The format is cell-based. The note with it: read-out: IC50 cell growth inhibition. The protocol:
FIG. 9 presents inhibition of cell growth by embelin in Jurkat-Vec and Jurkat-XIAP cells. The cell growth results are expressed as the percent of control and calculated from the percent of absorbance of treated wells versus that of vehicle control.
Human prostate cancer cell lines (PC-3, LNCap, CL-1, DU-145), and normal human fibroblast cell line WI-38 were obtained from the American Type Culture Collection (ATCC), were grown and maintained in Dulbecco's modified Eagle's medium (DMEM) containing 10% FBS (Invitrogen Corporation). Normal human prostate epithelial cells (PrEC) were obtained from Clonetics (Cambrex Inc., MD) and maintained in the special medium provided by the company. Jurkat T-cells stably transfected with either empty vector (Jurkat-Vec), or XIAP (Jurkat-XIAP) and were cultured in RPMI 1640 containing 10% fetal calf serum and 1 ug/ml puromycin. Cell cultures were maintained in a humidified incubator at 37° C. and 5% CO2.
as §1

Molecules are shown by their SMILES.

T1 sequence (P98170 241-356): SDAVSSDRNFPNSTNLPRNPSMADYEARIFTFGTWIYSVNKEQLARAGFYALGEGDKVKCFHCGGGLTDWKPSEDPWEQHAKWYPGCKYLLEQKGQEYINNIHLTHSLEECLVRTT

One may read the IC50 as the concentration that inhibits the measured activity by half. `CCCCCCCCCCCC1=C(O)C(=O)C=C(O)C1=O` [embelin]: the “binding site on XIAP BIR3 by 15N HSQC NMR” value in assay [1] was “binds to the surface groove in the XIAP BIR3 domain where Smac and caspase-9 bind”. The IC50 in assay [2] worked out at 19.3 µM; in assay [3], 20 µM.
